{"source": "patent US9890175B2", "about": "“Taxane compound, and preparation method and use thereof” (JIANGSU TASLY DIYI PHARMACEUTICAL CO., LTD., priority 2013, dated 2018)", "key": {"[1]": {"system": "A2780 ovarian cancer", "experiment": "MTT proliferation inhibition, A2780", "assay_type": "cell-based", "details": "Homo sapiens, A2780, read-out: Proliferation inhibition rate, A2780 Ovarian cancer", "source_text": "(§1) 1. Cytotoxicity Assay Using Human Tumor Cell Lines\n(§2) Paclitaxel was used as the positive drug."}, "[2]": {"system": "Hela cervical cancer", "experiment": "MTT proliferation inhibition, HeLa", "assay_type": "cell-based", "details": "Homo sapiens, read-out: Proliferation inhibition rate, HeLa Uterin cancer", "source_text": "as §1, §2"}, "[3]": {"system": "MCF-7 breast cancer cells", "experiment": "MTT proliferation inhibition, MCF-7", "assay_type": "cell-based", "details": "Homo sapiens, MCF7, read-out: Proliferation inhibition rate, MCF-7 Breast cancer", "source_text": "as §1, §2"}, "[4]": {"system": "NCI-H460 non-small cell lung cancer", "experiment": "MTT proliferation inhibition, NCI-H460", "assay_type": "cell-based", "details": "Homo sapiens, NCI-H460, read-out: Proliferation inhibition rate, NCI-H460 Non-small cell lung cancer", "source_text": "as §1, §2"}, "[5]": {"system": "A375 melanoma", "experiment": "MTT proliferation inhibition, A375", "assay_type": "cell-based", "details": "Homo sapiens, A-375, read-out: Proliferation inhibition rate, A375 Melanoma", "source_text": "as §1, §2"}, "[6]": {"system": "HT-29 colon cancer", "experiment": "MTT proliferation inhibition, HT-29", "assay_type": "cell-based", "details": "Homo sapiens, HT-29, read-out: Proliferation inhibition rate, HT29 Colon cancer", "source_text": "as §1, §2"}, "[7]": {"system": "HL-60 leukemia", "experiment": "MTT proliferation inhibition, HL-60", "assay_type": "cell-based", "details": "Homo sapiens, HL-60, read-out: Proliferation inhibition rate, HL60 Leukemia", "source_text": "as §1, §2"}, "[8]": {"system": "MDA-MB-436 breast cancer cells", "experiment": "MTT proliferation inhibition, MDA-MB-436", "assay_type": "cell-based", "details": "Homo sapiens, MDA-MB-436, read-out: Proliferation inhibition rate, MDA-MB-436 Breast cancer", "source_text": "as §1, §2"}, "[9]": {"system": "LN-18", "experiment": "MTT proliferation inhibition, LN-18", "assay_type": "cell-based", "details": "Homo sapiens, LN-18, read-out: Proliferation inhibition rate, LN-18 Gastric canser", "source_text": "as §1, §2"}, "[10]": {"system": "BGC-823 gastric cancer", "experiment": "MTT proliferation inhibition, BGC-823", "assay_type": "cell-based", "details": "Homo sapiens, BGC-823, read-out: Proliferation inhibition rate, BGC-823 Gastric cancer", "source_text": "as §1, §2"}, "[11]": {"system": "A549 non-small cell lung cancer", "experiment": "MTT proliferation inhibition, A549", "assay_type": "cell-based", "details": "Homo sapiens, A549, read-out: Proliferation inhibition rate, A549 Non-small cell lung cancer", "source_text": "as §1, §2"}, "[12]": {"system": "B16 melanoma", "experiment": "MTT proliferation inhibition, B16", "assay_type": "cell-based", "details": "B16, read-out: Proliferation inhibition rate, B16 Melanoma", "source_text": "as §1, §2"}, "[13]": {"system": "K562 leukemia", "experiment": "MTT proliferation inhibition, K562", "assay_type": "cell-based", "details": "Homo sapiens, K562, read-out: Proliferation inhibition rate, K562 Leukemia", "source_text": "as §1, §2"}, "[14]": {"system": "LNCaP prostate cancer", "experiment": "MTT proliferation inhibition, LNCaP", "assay_type": "cell-based", "details": "Homo sapiens, read-out: Proliferation inhibition rate, LNCaP Prostate cancer", "source_text": "as §1, §2"}, "[15]": {"system": "breast cancer cell line MCF-7", "experiment": "IC50 on breast cancer cell line MCF-7", "assay_type": "cell-based", "details": "Homo sapiens, MCF7, 72 h, read-out: MCF-7 (IC50, nM)"}, "[16]": {"system": "Caco-2 cell monolayer", "experiment": "Caco-2 bidirectional transport, efflux ratio", "details": "Caco-2 cell line (21 days)", "excerpt": "Human-derived colorectal adenocarcinoma cell line Caco-2 cell monolayer model was used to study the bidirectional transport of the target compounds from the apical (AP) side to the basolateral (BL) side and from BL side to AP side. HPLC was used for quantitative analysis to calculate transport parameters, apparent permeability coefficient (Papp) and the efflux ratio."}}}
{"smiles": "CO[C@H]1C[C@H]2OC[C@@]2(OC(C)=O)[C@H]2[C@H](OC(=O)c3ccccc3)[C@]34OC(=O)O[C@H]3[C@H](OC(=O)[C@H](O)[C@@H](NC(=O)OC(C)(C)C)c3ccccc3)C(C)=C([C@@H](OC(=O)N(C)C)C(=O)[C@]12C)C4(C)C", "note": "[PCMI-08]", "values": [{"measurement": "inhibition at 1 µM", "setting": "[1]", "value": 92.5, "unit": "%"}, {"measurement": "inhibition at 1 µM", "setting": "[2]", "value": 97.3, "unit": "%"}, {"measurement": "inhibition at 1 µM", "setting": "[3]", "value": 81.3, "unit": "%"}, {"measurement": "inhibition at 1 µM", "setting": "[4]", "value": 85.2, "unit": "%"}, {"measurement": "inhibition at 1 µM", "setting": "[5]", "value": 92.8, "unit": "%"}, {"measurement": "inhibition at 1 µM", "setting": "[6]", "value": 81.7, "unit": "%"}, {"measurement": "inhibition at 1 µM", "setting": "[7]", "value": 96.8, "unit": "%"}, {"measurement": "inhibition at 1 µM", "setting": "[8]", "value": 65.7, "unit": "%"}, {"measurement": "inhibition at 1 µM", "setting": "[9]", "value": 87.7, "unit": "%"}, {"measurement": "inhibition at 1 µM", "setting": "[10]", "value": 80.8, "unit": "%"}, {"measurement": "inhibition at 1 µM", "setting": "[11]", "value": 68.1, "unit": "%"}, {"measurement": "inhibition at 1 µM", "setting": "[12]", "value": 70.6, "unit": "%"}, {"measurement": "inhibition at 1 µM", "setting": "[13]", "value": 90.8, "unit": "%"}, {"measurement": "inhibition at 1 µM", "setting": "[14]", "value": 84.3, "unit": "%"}, {"measurement": "IC50", "setting": "[15]", "value": "7.93 ± 0.14", "unit": "nM"}, {"measurement": "Papp A-B", "setting": "[16]; A-B", "value": "16.40 10^−6 cm/s"}, {"measurement": "Papp B-A", "setting": "[16]; B-A", "value": "33.48 10^−6 cm/s"}, {"measurement": "efflux ratio", "setting": "[16]; Papp B-A/Papp A-B", "value": 2.04}]}
